Results: publication PMC7721897, “Metabolism and pharmacokinetics of a novel polyphenol fatty acid ester phloridzin docosahexaenoate in Balb/c female mice” (Scientific Reports, 2020)

Experiments:
[1] = In vitro phase I metabolism with mouse hepatic microsomes and NADPH; type: in vitro ADME; settings: PZ-DHA 1.1 µM, 100 mM NADPH, 1 h, 37 °C
Procedure: Figure 2 PZ-DHA undergoes phase I metabolism in the presence of freshly prepared mouse liver microsomes. PZ-DHA (1.1 µM) was incubated with 100 mM NADPH in the presence of mouse liver microsome for 1 h at 37 °C. Metabolites from PZ-DHA (A) hydrolysis, (B) and (C) hydroxylation, and (D) epoxidation were identified.
Mouse hepatic microsomes were freshly isolated from the livers of male C57BL/6 mice, and the entire extraction procedure was carried out at 4 °C. Mouse livers were minced and homogenized in KCl/sucrose phosphate buffer (0.154 M KCl, 0.25 M sucrose in 50 mM potassium phosphate buffer (K2HPO4/KH2PO4) (PPB), pH 7.5). Cell/tissue debris was separated out by centrifuging homogenized livers at 12,000×g for 22 min at 4 °C. The supernatant was collected and centrifuged at 100,000×g for 70 min at 4 °C. The pellet was gently rinsed using 50 mM PPB and resuspended in glycerol/phosphate buffer (20% glycerol (v/v), 80% 0.1 M PPB pH 7.5). The protein concentration was determined using a Bradford assay (R^2 = 1.00), and microsomes were stored at − 80 °C.
Potential in vitro phase I and phase II metabolites of PZ-DHA were detected by incubating PZ-DHA in the presence of freshly-prepared mouse hepatic microsome preparations. Phase I metabolites were determined by incubating 1.1 µM PZ-DHA with 100 mM NADPH in the presence of mouse hepatic microsomes for 1 h at 37 °C. Phase II methylation, glucuronidation, and sulphation of PZ-DHA was determined by incubating 1.1 µM PZ-DHA with 1 mM SAM, 2 mM UDPGA, and 0.5 mM PAPS, respectively, in the presence of freshly prepared mouse hepatic microsome for 1 h at 37 °C (Supplementary information Tables S1–S4). To assess the efficiency of the metabolic process, controls (no PZ-DHA control, no mouse hepatic microsome control and no co-factor control) were incubated in parallel to the test. Reactions were terminated by adding a mixture of 4 mL ice-cold acetonitrile:acetone (80:20) containing 0.05 mg/mL quercetin as the internal standard. Proteins were precipitated by incubating the reaction mixture at 4 °C overnight and separated by centrifuging at 14,000 × g for 15 min at 4 °C. Supernatants were concentrated under nitrogen flush, filtered and PZ-DHA and/or PZ-DHA metabolites were identified using a UPLC-ESI–MS/MS system (Waters Limited, Mississauga, ON, Canada).
(§1) PZ-DHA and/or PZ-DHA metabolites in malignant/non-malignant epithelial cell lysates, in vitro microsome enzyme reaction mixtures, and mouse serum aliquots were determined using UPLC-ESI–MS/MS instrument (Waters Limited, Mississauga, ON, Canada). All mass spectroscopic analyses were performed using mass scan (full-scan, identification of unknowns) and single ion monitoring (SIM; quantification of PZ, DHA, PZ-DHA, and quercetin) modes of a Waters H-class UPLC separations module coupled with a Micromass Quattro micro API MS/MS system and MassLynx V4.0 control software. An Allure biphenyl column (100 mm × 2.1 mm, 1.8 μm, Restek Pure Chromatography, Bellefonte, PA, USA) and a flow rate of 0.3 mL/min were employed. ESI- mode with a capillary voltage of 3000 V and a nebulizer gas (N2) temperature of 375 °C were used. A volume of 2 µL sample was injected.

[2] = In vitro phase II metabolism with mouse hepatic microsomes and SAM, UDPGA or PAPS; type: in vitro ADME; settings: PZ-DHA 1.1 µM, SAM, 1 h, 37 °C
Procedure: Figure 3 PZ-DHA undergoes phase II metabolism in the presence of freshly prepared mouse liver microsomes. PZ-DHA (1.1 µM) was incubated with S-(5′-adenosyl)-L-methionine chloride dihydrochloride (1 mM), […] (2 mM) and alamethicin (25 µg/mL) and adenosine 3′-phosphate 5′-phosphosulfate lithium salt, hydrate (0.5 mM) in the presence of mouse liver microsomal enzymes (3 mg/mL) at 37 °C for 1 h. (A) Tri-methylated-PZ-DHA (4,4′,6′-tri-O-methyl-phloridzin docosahexaenoate) (MW = 788.88 g/mol), (B) phloridzin docosahexaenoate-4-O-glucuronide (MW = 923.02 g/mol) and phloridzin docosahexaenoate-4′-O-glucuronide (MW = 923.02 g/mol), and (C) sulfated-PZ-DHA (phloridzin docosahexaenoate-4,4′-di-O-sulphide) metabolite (MW = 906.20 g/mol) were identified.
Mouse hepatic microsomes were freshly isolated from the livers of male C57BL/6 mice, and the entire extraction procedure was carried out at 4 °C. Mouse livers were minced and homogenized in KCl/sucrose phosphate buffer (0.154 M KCl, 0.25 M sucrose in 50 mM potassium phosphate buffer (K2HPO4/KH2PO4) (PPB), pH 7.5). […] The protein concentration was determined using a Bradford assay (R^2 = 1.00), and microsomes were stored at − 80 °C.
Potential in vitro phase I and phase II metabolites of PZ-DHA were detected by incubating PZ-DHA in the presence of freshly-prepared mouse hepatic microsome preparations. Phase I metabolites were determined by incubating 1.1 µM PZ-DHA with 100 mM NADPH in the presence of mouse hepatic microsomes for 1 h at 37 °C. Phase II methylation, glucuronidation, and sulphation of PZ-DHA was determined by incubating 1.1 µM PZ-DHA with 1 mM SAM, 2 mM UDPGA, and 0.5 mM PAPS, respectively, in the presence of freshly prepared mouse hepatic microsome for 1 h at 37 °C (Supplementary information Tables S1–S4). […]
PZ-DHA and/or PZ-DHA metabolites in malignant/non-malignant epithelial cell lysates, in vitro microsome enzyme reaction mixtures, and mouse serum aliquots were determined using UPLC-ESI–MS/MS instrument (Waters Limited, Mississauga, ON, Canada). […]

[3] = Tissue distribution of PZ-DHA and metabolites after intraperitoneal injection; type: in vivo, Balb/c female mice; settings: PZ-DHA 100 mg/kg intraperitoneal
Procedure: Figure 5 PZ-DHA and metabolites were detected in various organs of PZ-DHA-treated Balb/c female mice. PZ-DHA (100 mg/kg) was administered by intraperitoneal injection to Balb/c female mice and liver, lungs, kidneys, spleen and brain were harvested. Organs were homogenized and PZ-DHA in (A) liver, kidneys, lungs, spleen, and brain was identified and quantified using a calibration curve. The abundance of (B) 4,4′,6′-tri-O-methyl-phloridzin docosahexaenoate in liver, kidneys, lungs, and serum) and (C) phloridzin docosahexaenoate-4,4′-di-O-sulphide in the liver was determined in PZ-DHA equivalence.
(§2) Pharmacokinetic parameters and in vivo generation of PZ-DHA metabolites were studied using Balb/c female mice. Mice were randomly divided into six groups (n = 4/group) and PZ-DHA (100 mg/kg) was administered by intraperitoneal injection. For each mouse, a single blood collection was performed by cardiac puncture at one of six different time points (t = 15, 30, 60, 90, 120, and 240 min). At the end of blood collection, mice were euthanized by cervical dislocation and organs (liver, lungs, kidneys, spleen, and brain) were harvested. Blood samples were allowed to clot by leaving undisturbed at room temperature for 1 h, and serum was separated by centrifuging at 2000×g for 10 min at 4 °C. The serum was carefully removed and stored on ice until further processing. Serum proteins were precipitated by incubating an aliquot of serum with a mixture of acetonitrile:acetone (80:20) containing 0.1 mg/mL quercetin (internal standard) at 4 °C overnight. The supernatant was separated by centrifuging at 14,000×g for 10 min at 4 °C. Excess solvent was evaporated using nitrogen flush and mixed with methanol and filtered. PZ-DHA-metabolites in the filtrate were identified using a UPLC-ESI–MS/MS (Waters Limited, Mississauga, ON, Canada). Organs were homogenized in PBS (1:5 w/v). Supernatants were collected by centrifugation at 14,000 × g for 15 min at 4 °C. Proteins were precipitated by incubating in acetonitrile:acetone (80:20) containing 0.1 mg/mL quercetin (internal standard) at 4 °C overnight. Supernatants were treated as explained above, and PZ-DHA and/or PZ-DHA-metabolites were identified.

[4] = tested on: mammary carcinoma cells and mammary epithelial cells; assay: Cellular uptake assay, all cell lines together; type: cell-based, human and mouse; settings: all cell lines, 20 μM, 72 h
Procedure: Figure 1 Conjugation of PZ with DHA increases the cellular uptake and stability of PZ and DHA. The cells were treated with 20 μM of PZ, DHA or PZ-DHA and cultured for 72 h at 37 °C. Cells were harvested and washed thoroughly using cold PBS. Cells were lysed in cold acetone containing 0.05 mg/mL quercetin, and cell lysates were collected by centrifugation and analyzed by using UPLC-ESI-MS/MS. (A) mean % cellular uptake of PZ, DHA and PZ-DHA. (B) fold increase in intracellular PZ and DHA when conjugated. ANOVA multiple means statistical comparison method was performed and differences among means were compared using Tukey’s test; *p < 0.05. (MDA-MB-231 p = 0.008; MDA-MB-468 p = 0.01; 4T1 p = 0.02; MCF-7 p = 0.01; MCF-10A p = 0.0005).
Cells were seeded at a density of 3 × 10^5 cells (MDA-MB-231, MDA-MB-468, MCF-7, and MCF-10A) or 1 × 10^5 cells (4T1) /T-75 flask. The cells were cultured overnight to promote cell adhesion. Adherent cells were treated with a sub-cytotoxic concentration (20 μM) of PZ, DHA or PZ-DHA and cultured for 72 h at 37 °C. The supernatant was carefully removed, and cell monolayers were washed with cold PBS. Cells were harvested using TrypLE Express and washed thoroughly with cold PBS. The cell pellet was resuspended in 3 mL of cold acetone containing 0.05 mg/mL quercetin as the internal standard, and incubated overnight at 4 °C. Cell lysates were collected by centrifugation at 14,000×g for 15 min at 4 °C and samples were concentrated by evaporating acetone under a stream of nitrogen gas. Dry pellets were reconstituted in methanol and filtered. The sample was analyzed using a UPLC/ESI/MS system. The percentage cell uptake of the total dose was quantified using standard curves of PZ (R^2 = 0.99), DHA (R^2 = 0.98) or PZ-DHA (R^2 = 0.99) made in methanol.
as §1

[5] = Serum pharmacokinetics after intraperitoneal injection; type: in vivo, Balb/c female mice; settings: PZ-DHA 100 mg/kg intraperitoneal, serum
Procedure: Figure 4 Intraperitoneal administration of PZ-DHA results in absorption into the systemic circulation of Balb/c female mice. PZ-DHA (100 mg/kg) was administered by intraperitoneal injection to Balb/c female mice. Blood collection was performed and serum was separated. PZ-DHA was identified and quantified using a calibration curve (R^2 = 0.99) generated using a standard series of PZ-DHA concentrations made in mouse serum. PZ-DHA concentration was plotted against time. The elimination rate of PZ-DHA was determined using a semi-log curve of PZ-DHA concentration vs. time curve.
as §2
A calibration curve (R^2 = 0.99) generated using a standard series of PZ-DHA concentrations prepared in mouse serum (spiked with 0.1 mg/mL quercetin) was used for the quantification of PZ-DHA. The average PZ-DHA concentrations were plotted against time. The maximum serum concentration of serum (Cmax) and the time to reach Cmax (Tmax) were read directly from the graph. The linear trapezoidal method was used to calculate the area under the curve (AUC) from t = 0 to infinity, the biological half-life of PZ-DHA (t1/2), determined using the plotted curve in Graphpad Prism software (version 5; La Jolla, CA, USA). The clearance following IP administration was determined by non-compartmental analysis using the relationship CL/F = D/AUC. The elimination rate constant λ was determined by linear regression of the elimination phase of the semi-log transformed concentration versus time curve. The t1/2 was calculated using the formula 0.693/λ and the volume of distribution Vd/F from the formula Vd/F = CL/(F*λ).

[6] = tested on: mammary carcinoma cells, including MDA-MB-231 and 4T1; parameters: method as in PMID 31473253; settings: 20 µM for PZ-DHA; cited from earlier work

CC/C=C\C/C=C\C/C=C\C/C=C\C/C=C\C/C=C\CCC(=O)OC[C@H]1O[C@@H](Oc2cc(O)cc(O)c2C(=O)CCc2ccc(O)c(O)c2)[C@H](O)[C@@H](O)[C@@H]1O [3-hydroxy-phloridzin docosahexaenoate]
phase I metabolite of PZ-DHA identified [1]: identified

O=C(CCc1ccc(O)c(O)c1)c1c(O)cc(O)cc1O[C@@H]1O[C@H](CO)[C@@H](O)[C@H](O)[C@H]1O [3-hydroxy-phloridzin]
phase I metabolite of PZ-DHA identified [1]: identified

CC/C=C\C/C=C\C/C=C\C/C=C\C/C=C\C/C=C\CCC(=O)OC[C@H]1O[C@@H](Oc2cc(OC)cc(OC)c2C(=O)CCc2ccc(OC)cc2)[C@H](O)[C@@H](O)[C@@H]1O [4,4′,6′-tri-O-methyl-phloridzin docosahexaenoate]
phase II metabolite of PZ-DHA identified [2]: identified | time at which the metabolite reached the maximum concentration, post-injection ([3]; all organs except for serum): < 1 h | metabolite detection in tissue after PZ-DHA ([3]; liver, lungs, and kidneys): detected | metabolite concentration in serum throughout the experimental period ([3]; serum): remained constant | metabolite detection in tissue after PZ-DHA ([3]; spleen or brain): not found

CC/C=C\C/C=C\C/C=C\C/C=C\C/C=C\C/C=C\CCC(=O)O [DHA, docosahexaenoic acid, reference compound]
cellular uptake (as a % of the dose), in words [4]: very low | phase I metabolite of PZ-DHA identified [1]: identified | phase I metabolite in serum after PZ-DHA [5]: detection | migration and invasion of mammary carcinoma cells [6]: to a lesser extent than PZ-DHA

O=C(CCc1ccc(O)cc1)c1c(O)cc(O)cc1O[C@@H]1O[C@H](CO)[C@@H](O)[C@H](O)[C@H]1O [PZ, phloridzin]
cellular uptake (as a % of the dose), in words [4]: very low | phase I metabolite of PZ-DHA identified [1]: identified | phase I metabolite in serum after PZ-DHA [5]: detection | migration and invasion of mammary carcinoma cells [6]: to a lesser extent than PZ-DHA

CC/C=C\C/C=C\C/C=C\C/C=C\C/C=C\C/C=C\CCC(=O)OC[C@H]1O[C@@H](Oc2cc(O)cc(O)c2C(=O)CCc2ccc(O[C@@H]3O[C@H](C(=O)O)[C@@H](O)[C@H](O)[C@H]3O)cc2)[C@H](O)[C@@H](O)[C@@H]1O [phloridzin docosahexaenoate-4-O-glucuronide]
phase II metabolite of PZ-DHA identified [2]: identified

CC/C=C\C/C=C\C/C=C\C/C=C\C/C=C\C/C=C\CCC(=O)OC[C@H]1O[C@@H](Oc2cc(O[C@@H]3O[C@H](C(=O)O)[C@@H](O)[C@H](O)[C@H]3O)cc(O)c2C(=O)CCc2ccc(O)cc2)[C@H](O)[C@@H](O)[C@@H]1O [phloridzin docosahexaenoate-4′-O-glucuronide]
phase II metabolite of PZ-DHA identified [2]: identified

tri-epoxy-phloridzin docosahexaenoate
phase I metabolite of PZ-DHA identified [1]: identified
